Experimental data: PMC8041284, “Tunable Methacrylamides for Covalent Ligand Directed Release Chemistry” (Journal of the American Chemical Society, 2021)
Where a SMILES comes first, the peptide text is derived from it. [ ]: non-standard residue; d: D form. pGlu = O=C1CC[C@@H](C(=O)O)N1; Thz = O=C(O)[C@@H]1CSCN1

biological target: BTK (Homo sapiens, UniProt Q06187); experiment: biochemical; settings: read-out: BTK inhibition (%)
Sequence (Q06187 402-655 limits assumed): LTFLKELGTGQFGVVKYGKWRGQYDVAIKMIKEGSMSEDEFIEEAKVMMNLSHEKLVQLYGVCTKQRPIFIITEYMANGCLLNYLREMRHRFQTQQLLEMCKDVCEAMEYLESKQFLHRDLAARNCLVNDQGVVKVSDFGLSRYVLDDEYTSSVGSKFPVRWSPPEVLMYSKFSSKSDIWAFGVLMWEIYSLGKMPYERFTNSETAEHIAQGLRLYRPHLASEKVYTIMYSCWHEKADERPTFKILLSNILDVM

Row | SMILES | inhibition at 10 µM
1 | COc1cc(OC)c(OC)cc1C=O [PCM-0091340] | -12.4%
2 | O=[N+]([O-])c1ncc[nH]1 [PCM-0094820] | 3.1%
3 | CC(C)(C)[C@]1(O)C[C@@H]2OC(=O)C[C@@]23C(=O)O[C@@H]2OC(=O)[C@H](O)[C@]213 [PCM-0094827] | -6.2%

same assay, conditions: read-out: BTK inhibition (%), 0.75 uM BTK, […] probe 3l, 15 min preincubation

Row | SMILES | inhibition at 10 µM
4 | CC(=O)Oc1ccccc1C(=O)Nc1ncc([N+](=O)[O-])s1 [PCM-0090347] | 17.9%
5 | CN1CCC(=C2c3ccccc3CCc3cccnc32)CC1 [PCM-0090351] | -2.8%
6 | CCOc1nc2cccc(C(=O)OCc3oc(=O)oc3C)c2n1Cc1ccc(-c2ccccc2-c2noc(=O)[nH]2)cc1 [PCM-0090373] | 24.1%
7 | CCCCC1=NC2(CCCC2)C(=O)N1Cc1ccc(-c2ccccc2-c2nn[nH]n2)cc1 [PCM-0090383] | 4.3%
8 | CCN1CCN(c2cc3c(cc2F)c(=O)c(C(=O)O)cn3C2CC2)CC1 [PCM-0090392] | -11.9%
9 | COc1cc2c(cc1OC)C(=O)C(CC1CCN(Cc3ccccc3)CC1)C2 (stereo not drawn) [PCM-0090394] | -23.8%
10 | CN(C)CCc1c[nH]c2ccc(CS(=O)(=O)N3CCCC3)cc12 [PCM-0090415] | -0.8%
11 | CN(C)c1ccc2nc3ccc(=[N+](C)C)cc-3sc2c1 [PCM-0090465] | 42.8%
12 | O=C1CN2Cc3c(ccc(Cl)c3Cl)N=C2N1 [PCM-0090482] | -15.2%
13 | CC1=CC(=O)NS(=O)(=O)O1 [PCM-0090549] | -14%
14 | CNCC(=O)c1ccc(O)c(O)c1 [PCM-0090552] | 10.9%
15 | COC(=O)/C=C/C(=O)OC [PCM-0090553] | 1.4%
16 | CN(C)CCc1c[nH]c2ccc(C[C@H]3COC(=O)N3)cc12 [PCM-0090594] | 17.1%
17 | CNCC[C@H](Oc1cccc2ccccc12)c1cccs1 [PCM-0090599] | -1.6%
18 | CN1CC(=O)N=C1N [PCM-0090615] | -3.4%
19 | O=S(=O)(O)NC1CCCCC1 [PCM-0090618] | 3.9%
20 | CC(=O)Nc1ccccc1 [PCM-0090657] | -14.5%
21 | O=S(=O)(c1cccc2cnccc12)N1CCCNCC1 [PCM-0090675] | -17.9%
22 | CCCCCCCCCCCCCCCCOP(=O)([O-])OCC[N+](C)(C)C [PCM-0090698] | -72.3%
23 | O=c1oc2cc(O)ccc2s1 [PCM-0090709] | -13.2%
24 | O=C(O)c1cc(=O)[nH]c(=O)[nH]1 [PCM-0090751] | -11.7%
25 | CCOC(=O)OC(C)OC1=C(C(=O)Nc2ccccn2)N(C)S(=O)(=O)c2ccccc21 (stereo not drawn) [PCM-0090753] | 2.1%

Row | SMILES | inhibition at 10 µM
26 | O=c1cc[nH]c(=S)[nH]1 [PCM-0090803] | 8.6%
27 | C=CCNC(N)=S [PCM-0090807] | -18.7%
28 | CC1(C)CCC[C@]2(C)[C@H]3CC(=O)O[C@]3(C)CC[C@@H]12 [PCM-0090818] | -18.7%
29 | Cc1cc(O)c2c(c1)C(=O)c1cccc(O)c1C2=O [PCM-0090919] | -4.8%
30 | O=c1[nH]cnc2nc[nH]c12 [PCM-0091022] | -22.1%
31 | C/C=C1\[C@H]2C=C(C)C[C@]1(N)c1ccc(=O)[nH]c1C2 [PCM-0091027] | -24.7%
32 | O=c1c2ccccc2oc2ccccc12 [PCM-0091091] | -21%
33 | C[C@H]1COC2=C1C(=O)C(=O)c1c2ccc2c1CCCC2(C)C [PCM-0091097] | 15.6%
34 | COc1ccc(-c2cc(=O)c3c(OC)c(OC)c(OC)c(OC)c3o2)cc1OC [PCM-0091108] | 2.3%
35 | OCc1c[nH]c2ccccc12 [PCM-0091140] | -14%
36 | NCCc1ccccc1 [PCM-0091318] | 0%
37 | Cc1coc2c1C(=O)C(=O)c1c-2ccc2c1CCCC2(C)C [PCM-0091329] | 16.3%
38 | CN(C)Cc1c[nH]c2ccccc12 [PCM-0091332] | -24.9%
39 | COc1ccc(C(C)=O)c(O)c1 [PCM-0091399] | 6.2%
40 | C=C[C@@](C)(/C=C/c1ccc(O)cc1)CCC=C(C)C [PCM-0094651] | 6.9%
41 | CC(=O)C1=C(O)C=C2Oc3c(C(C)=O)c(O)c(C)c(O)c3[C@@]2(C)C1=O [PCM-0094808] | 17.1%
42 | O=C(O)CCCc1c[nH]c2ccccc12 [PCM-0094810] | -12.5%
43 | Cc1coc2c1C(=O)C(=O)c1c-2ccc2c(C)cccc12 [PCM-0094815] | -3.9%
44 | C=C[C@H]1CN2CC[C@H]1C[C@H]2[C@H](O)c1ccnc2ccccc12 [PCM-0094829] | -10.9%
45 | COc1cc(C(C)=O)ccc1O [PCM-0094831] | 9%
46 | CN(C)CCc1ccc(O)cc1 [PCM-0094832] | -21.8%
47 | O=C1C(c2c(O)[nH]c3ccccc23)=Nc2ccccc21 [PCM-0094833] | 11%

Further lines, results first:

Row | inhibition at 10 µM | SMILES
48 | -3.4% | O=P(O)(O)C(O)(Cc1cccnc1)P(=O)(O)O [PCM-0090360]
49 | 10.1% | C[N+](C)(C)C[C@H](O)CC(=O)[O-] [PCM-0090364]
50 | -3.9% | COc1ccc(C(=O)CC(=O)c2ccc(C(C)(C)C)cc2)cc1 [PCM-0090378]
51 | 53.7% | CCOc1nc2cccc(C(=O)OC(C)OC(=O)OC3CCCCC3)c2n1Cc1ccc(-c2ccccc2-c2nn[nH]n2)cc1 (stereo not drawn) [PCM-0090385]
52 | -3.4% | Cc1nc(-c2ccc(OCC(C)C)c(C#N)c2)sc1C(=O)O [PCM-0090390]
53 | -15.2% | COc1c(C)c2c(c(O)c1C/C=C(\C)CCC(=O)OCCN1CCOCC1)C(=O)OC2 [PCM-0090398]
54 | 15.9% | CC(C)n1c(/C=C/[C@H](O)C[C@H](O)CC(=O)O)c(-c2ccc(F)cc2)c2ccccc21 [PCM-0090402]
55 | 6.2% | CCCC[C@H](CC)COC(=O)/C=C/c1ccc(OC)cc1 [PCM-0090405]
56 | -27.2% | CCCCC(=O)N(Cc1ccc(-c2ccccc2-c2nn[nH]n2)cc1)[C@H](C(=O)O)C(C)C [PCM-0090417]
57 | -4.7% | CC(C)c1nc(N(C)S(C)(=O)=O)nc(-c2ccc(F)cc2)c1/C=C/[C@@H](O)C[C@@H](O)CC(=O)O [PCM-0090418]
58 | -3.1% | CC#CCn1c(N2CCC[C@@H](N)C2)nc2c1c(=O)n(Cc1nc(C)c3ccccc3n1)c(=O)n2C [PCM-0090431]
59 | -8.6% | Nc1nc(F)nc2c1ncn2[C@@H]1O[C@H](COP(=O)(O)O)[C@@H](O)[C@@H]1O [PCM-0090501]
60 | 45.1% | COc1cccc2c1C(=O)c1c(O)c3c(c(O)c1C2=O)C[C@@](O)(C(=O)CO)C[C@@H]3O[C@H]1C[C@H](N)[C@@H](O)[C@H](C)O1 [PCM-0090504]
61 | -20.2% | CCC(=O)NCC[C@@H]1CCc2ccc3c(c21)CCO3 [PCM-0090528]
62 | -13.6% | CCC(C)n1ncn(-c2ccc(N3CCN(c4ccc(OC[C@H]5CO[C@](Cn6cncn6)(c6ccc(Cl)cc6Cl)O5)cc4)CC3)cc2)c1=O (stereo partly drawn) [PCM-0090573]
63 | 17.8% | OC[C@@H](O)[C@@H](O[C@@H]1O[C@H](CO)[C@H](O)[C@H](O)[C@H]1O)[C@H](O)[C@@H](O)CO [PCM-0090607]
64 | -11.7% | C[N+](C)(C)CC(O)CC(=O)O (stereo not drawn) [PCM-0090641]
65 | -11.7% | C[C@H](Cn1cnc2c(N)ncnc21)OCP(=O)(O)O [PCM-0090661]
66 | 15.3% | O=c1oc2c(O)c(O)cc3c(=O)oc4c(O)c(O)cc1c4c23 [PCM-0090664]
67 | -8.6% | O=S(=O)(O)CCSSCCS(=O)(=O)O [PCM-0090667]
68 | -8.6% | CCOC(=O)CC(=O)N1CCSC1COc1ccccc1OC (stereo not drawn) [PCM-0090669]
69 | 11.7% | O=C1CC[C@@H](C(=O)N2CSC[C@H]2C(=O)O)N1 [PCM-0090672] ([pGlu]-[Thz]-OH)

Row | inhibition at 10 µM | SMILES
70 | -10.9% | O=C(O)CSCC(=O)NC1CCSC1=O (stereo not drawn) [PCM-0090679]
71 | -16.3% | O=C(O)CCCCC1CCSS1 (stereo not drawn) [PCM-0090722]
72 | -19.5% | OC[C@@H](O)[C@@H](O)[C@H](O)[C@@H](O)CO [PCM-0090796]
73 | 2.3% | OC[C@@H](O)C(O)[C@@H](O)CO (stereo partly drawn) [PCM-0090917]
74 | 102% | COc1cc(/C=C/C(=O)CC(=O)/C=C/c2ccc(O)c(OC)c2)ccc1O [PCM-0091011]
75 | 7.8% | O=c1ccn([C@@H]2O[C@H](CO)[C@@H](O)[C@H]2O)c(=O)[nH]1 [PCM-0091168]
76 | -9.3% | C=CC(C)(O)CCC=C(C)C (stereo not drawn) [PCM-0091203]
77 | -11.7% | COc1ccc([C@@H]2CC(=O)c3c(O)cc(O)cc3O2)cc1O [PCM-0091279]
78 | -28.8% | CCc1c2c(nc3ccc(O)cc13)-c1cc3c(c(=O)n1C2)COC(=O)[C@]3(O)CC [PCM-0091516]
79 | -13.2% | OC[C@H]1O[C@@H](OCCc2ccc(O)cc2)[C@H](O)[C@@H](O)[C@@H]1O [PCM-0094523]
80 | 17.9% | OCc1ccc(O[C@@H]2O[C@H](CO)[C@@H](O)[C@H](O)[C@H]2O)cc1 [PCM-0094551]
81 | -70% | COc1ccc2ccc(=O)oc2c1CC=C(C)C [PCM-0094564]
82 | -25.7% | C=C[C@](C)(O)CC[C@@H]1[C@@]2(C)CCCC(C)(C)[C@@H]2CC[C@@]1(C)O [PCM-0094807]
83 | 10.1% | O=C(O)C1=C[C@@H](O)[C@@H](O)[C@H](O)C1 [PCM-0094809]
84 | 66.1% | COc1cc(C2Oc3cc(C4Oc5cc(O)cc(O)c5C(=O)C4O)ccc3OC2CO)ccc1O (stereo not drawn) [PCM-0094811]
85 | -6.2% | C=C1CC[C@@H]2[C@](C)(CO)[C@H](O)CC[C@@]2(C)[C@@H]1C/C=C1/C(=O)OC[C@H]1O [PCM-0094814]
86 | 3.9% | O=C1C[C@@H](c2ccc(O)cc2)Oc2cc(O)cc(O)c21 [PCM-0094816]
87 | 14.8% | O=C(O)[C@H]1O[C@@H](Oc2cc3oc(-c4ccccc4)cc(=O)c3c(O)c2O)[C@H](O)[C@@H](O)[C@@H]1O [PCM-0094823]
88 | -0.8% | COc1cc(CCC(C)=O)ccc1O [PCM-0094824]
89 | -2.3% | NC(Cc1c[nH]c2ccc(O)cc12)C(=O)O (stereo not drawn) [PCM-0094825]
90 | 21% | O=C1c2c(O)cccc2[C@H]([C@@H]2O[C@H](CO)[C@@H](O)[C@H](O)[C@H]2O)c2cc(CO)cc(O)c21 [PCM-0094826]
